The text below walks through data of US7915297B2, “Isoxazole derivatives and use thereof” (SK Holdings Co., Ltd., priority 2005, dated 2011).

Some results are limits rather than exact numbers.

Test [1] has as its system Wnt/β-catenin signaling (β-catenin activity) in SW480 cell line. The test is described as follows: Cell-based Wnt agonist screening, TCF luciferase reporter, SW480 (TCF-FL). The conditions noted are these: Homo sapiens, % of LiCl (20 mM), 24 h, read-out: Max. Activity (%); for Emax at 30 µM: Con. 30 μM; for Emax at 60 µM: Con. 60 μM; for Emax at 1 µM: Con. 1 μM; for Emax at 120 µM: Con. 120 μM; for Emax at 10 µM: Con. 10 μM. Also on record: species or system human. An excerpt:
(§1) In order to measure the in vitro activity of compounds of the present invention, two human cancer cell lines, HEK293 and SW480, which have intact Wnt signaling and show APC gene mutation in the Wnt signaling pathway, respectively, were used.
(§2) For evaluating the activity of wnt/β-catenin signaling in the cancer cell lines, gene as illustrated in FIG. 1 having β-catenin-binding sites of the Tcf/Lef transcriptional control protein (5 sites of TCF, 5X TCF) and having a fire fly luficerase as a marker protein ascertainable the activity of 5X TCF was introduced into the cells. Treatment with G418 led monoclones of the cell lines, in which the genes were permanently expressed, so as to construct a cell-based Wnt agonist screening system. […] For comparison with the activity of the isoxazole derivatives as Wnt agonists, lithium chloride (LiCl), acting as a positive control for the cell-based Wnt agonist screening system, was used to determine the expression level of the luciferase, and the results are shown in FIG. 3.
(§3) The cell lines, in which a cell-based Wnt agonist screening system was constructed, were cultured in RPMI 1640 media supplemented with penicillin-streptomycin (100 Units/mL) and heat-inactivated 5% fetal bovine serum under standard culture conditions (5% CO2, 37° C., 100% relative humidity). […] The suspension was diluted with the same medium to adjust the cell count to 8,000˜15,000 cells per well and was moved then in a 96-well microtiter plate. After being incubated for 24 hrs, the cells were treated with various concentrations of the isoxazole derivatives synthesized in Preparation Examples. Incubation for an additional 24 hours was followed by the quantitative analysis of luciferase activity using a Luciferase Assay kit (Promega, U.S.A.) according to the protocol described in the manual provided by the manufacturer. Data on the activities of the isoxazole derivatives thus synthesized are given in Tables 34 to 43, and are expressed as percentages relative to the activity of the positive control LiCl (20 mM), a well-known agonist of Wnt signaling.
Background: A reporter such as luciferase makes a cellular process visible.

Test [2] deals with Wnt/β-catenin signaling (β-catenin activity) in HEK293 cell line. Description: Cell-based Wnt agonist screening, TCF luciferase reporter, HEK293 (TCF-FL). Further details: species or system human. To be noted: Homo sapiens, HEK293, 24 h, % of LiCl (20 mM), 24 h, read-out: Max. Activity (%); for Emax at 30 µM: Conc. 30 μM.
Description: as §1, §2, §3

As for `O=C(NCCn1ccnc1)c1cc(-c2ccccc2)on1` [Derivative (69), 5-phenyl-isoxazole-3-carboxylic acid (2-imidazol-1-yl-ethyl)-amide], the Emax at 30 µM in test [1] and in test [2] was below 20% throughout.

Regarding `O=C(NCCCc1ccccc1)c1cc(-c2ccco2)on1` [Derivative (6), 5-furan-2-yl-isoxazole-3-carboxylic acid (3-phenyl-propyl)-amide], the Emax at 60 µM in test [1] turned out to be 322%. In addition, the Emax at 30 µM in test [2] is below 20%.

As to `O=C(NCCc1cccc(F)c1)c1cc(-c2ccco2)on1` [Derivative (17), 5-furan-2-yl-isoxazole-3-carboxylic acid [2-(3-fluoro-phenyl)-ethyl]-amide], the Emax at 60 µM in test [1] stood at 200%. Besides, the Emax at 30 µM in test [2] is below 20%. Regarding `O=C(CCNC(=O)c1cc(-c2cccs2)on1)Nc1ccccc1` [Derivative (209), 5-thiophen-2-yl-isoxazole-3-carboxylic acid (2-phenylcarbamoyl-ethyl)-amide], the Emax at 30 µM in test [1] was found to be 246%.

On to `O=C(NCCn1nccn1)c1cc(-c2cccs2)on1` [Derivative (136), 5-thiophen-2-yl-isoxazole-3-carboxylic acid (2-[1,2,3]triazol-2-yl-ethyl)-amide], for which, in test [1], the Emax at 1 µM came to 837%. Take `O=C(NCCS(=O)(=O)c1ccccc1)c1cc(-c2cccs2)on1` [Derivative (219), 5-thiophen-2-yl-isoxazole-3-carboxylic acid (2-benzenesulfonyl-ethyl)-amide]: in test [1], the Emax at 30 µM turned out to be 113%. Consider `O=C(NCCn1cncn1)c1cc(-c2cccs2)on1` [Derivative (135), 5-thiophen-2-yl-isoxazole-3-carboxylic acid (2-[1,2,4]triazol-1-yl-ethyl)-amide], for which the Emax at 120 µM in test [1] was 945%.

`O=C(NCCc1ccncc1)c1cc(-c2ccco2)on1` [Derivative (12), 5-furan-2-yl-isoxazole-3-carboxylic acid (2-pyridin-4-yl-ethyl)-amide]: in test [2] (Conc. 60 μM), the Emax at 60 µM was determined as 109%. Regarding `O=C(NCCCn1cncn1)c1cc(-c2ccoc2)on1` [Derivative (153), 5-furan-3-yl-isoxazole-3-carboxylic acid (3-[1,2,4]-triazol-1-yl-propyl)-amide], the Emax at 10 µM in test [1] was determined as 304%. As for `O=C(NCCc1cccnc1)c1cc(-c2cccs2)on1` [Derivative (139), 5-thiophen-2-yl-isoxazole-3-carboxylic acid (2-pyridin-3-yl-ethyl)-amide], the Emax at 30 µM in test [1] came to 922%. The same measure, in the same setting: the value for `O=C(NCCn1ccnn1)c1cc(-c2ccco2)on1` [Derivative (41), 5-furan-2-yl-isoxazole-3-carboxylic acid (2-[1,2,3]triazol-1-yl-ethyl)-amide] was 676%. As to `Nc1ccc(-c2cc(C(=O)NCCCn3ccnc3)no2)cc1` [Derivative (120), 5-(4-amino-phenyl)-isoxazole-3-carboxylic acid (3-imidazol-1-yl-propyl)-amide], the Emax at 120 µM in test [1] is 246%.

`O=C(NCCc1ccc(O)cc1)c1cc(-c2ccccc2)on1` [Derivative (73), 5-phenyl-isoxazole-3-carboxylic acid [2-(4-hydroxy-phenyl)-ethyl]-amide]: the Emax at 30 µM in test [1] is 853%. For the compound `O=C(NCCNc1ccccc1)c1cc(-c2ccco2)on1` [Derivative (195), 5-furan-2-yl-isoxazole-3-carboxylic acid (2-phenylamino-ethyl)-amide], the Emax at 1 µM in test [1] was determined as 84%. Take `O=C(NCCn1nccn1)c1cc(-c2ccco2)on1` [Derivative (40), 5-furan-2-yl-isoxazole-3-carboxylic acid (2-[1,2,3]triazol-2-yl-ethyl)-amide]: the Emax at 30 µM in test [1] stood at 896%. For `O=C(NCCc1ccccn1)c1cc(-c2ccco2)on1` [Derivative (10), 5-furan-2-yl-isoxazole-3-carboxylic acid (2-pyridin-2-yl-ethyl)-amide], in test [2] (Conc. 120 μM), the Emax at 120 µM was determined as 32%. For the compound `O=C(NCCOc1ccccc1)c1cc(-c2ccco2)on1` [Derivative (214), 5-furan-2-yl-isoxazole-3-carboxylic acid (2-phenoxy-ethyl)-amide], in test [1], the Emax at 1 µM was 161%.

On to `O=C(c1cc(-c2cccs2)on1)N1CCC(N2CCCC2)CC1` [Derivative (223), (4-pyrrolidin-1-yl-piperidin-1-yl)-(5-thiophen-2-yl-isoxazol-3-yl)-methanone], for which, in test [1], the Emax at 30 µM was found to be 50%. `O=C(OCc1cc(-c2ccco2)on1)n1ccnc1` [Derivative (251), imidazole-1-carboxylic acid 5-furan-2-yl-isoxazol-3-ylmethyl ester]: the Emax at 120 µM in test [1] was determined as 35%.

On to `O=C(NCCCn1ccnc1)c1cc(-c2ccc(Br)s2)on1` [Derivative (143), 5-(5-bromo-thiophen-2-yl)-isoxazole-3-carboxylic acid (3-imidazol-1-yl-propyl)-amide], for which, in test [1], the Emax at 120 µM amounted to 93%. In the case of `O=C(NCCc1ccc(O)cc1)c1cc(-c2ccco2)on1` [Derivative (22), 5-furan-2-yl-isoxazole-3-carboxylic acid [2-(4-hydroxy-phenyl)-ethyl]-amide], in test [2], the Emax at 30 µM was below 20%. As to `O=C(NCCc1cccnc1)c1cc(-c2ccccc2)on1` [Derivative (71), 5-phenyl-isoxazole-3-carboxylic acid (2-pyridin-3-yl-ethyl)-amide], the Emax at 30 µM in test [1] came to 919%.

As for `O=C(NCCn1cncn1)c1cc(-c2ccco2)on1` [Derivative (38), 5-furan-2-yl-isoxazole-3-carboxylic acid (2-[1,2,4]triazol-1-yl-ethyl)-amide], the Emax at 10 µM in test [1] was 551%. As for `O=C(NCc1ccncc1)OCc1cc(-c2ccco2)on1` [Derivative (254), pyridin-4-ylmethyl-carbamic acid 5-furan-2-yl-isoxazol-3-ylmethyl ester], the Emax at 120 µM in test [1] stood at 37%. On the same count and under the same terms, next, `O=C(NCCN1CCCCC1)c1cc(-c2ccco2)on1` [Derivative (174), 5-furan-2-yl-isoxazole-3-carboxylic acid (2-piperidin-1-yl-ethyl)-amide]: 79%. In the case of `CN1CCN(CCNC(=O)c2cc(-c3ccco3)on2)CC1` [Derivative (177), 5-furan-2-yl-isoxazole-3-carboxylic acid [2-(4-methyl-piperazin-1-yl)-ethyl]-amide], the Emax at 30 µM in test [1] turned out to be 582%. Consider `O=C(NCCCn1ccnc1)c1cc(-c2ccoc2)on1` [Derivative (152), 5-furan-3-yl-isoxazole-3-carboxylic acid (3-imidazol-1-yl-propyl)-amide], for which the Emax at 120 µM in test [1] came to 374%. On the same count and under the same terms, next, `CN(CCc1ccccn1)C(=O)c1cc(-c2ccco2)on1` [Derivative (61), 5-furan-2-yl-isoxazole-3-carboxylic acid methyl-(2-pyridin-2-yl-ethyl)-amide]: 56%; `O=C(NCCn1cncn1)c1cc(-c2ccsc2)on1` [Derivative (158), 5-thiophen-3-yl-isoxazole-3-carboxylic acid (2-[1,2,4]-triazol-1-yl-ethyl)-amide]: 414%.

As for `CN1CCN(C(=O)OCc2cc(-c3ccco3)on2)CC1` [Derivative (253), 4-methyl-piperazine-1-carboxylic acid 5-furan-2-yl-isoxazol-3-ylmethyl ester], in test [1], the Emax at 10 µM is 66%. On to `CC(=O)N1CCN(C(=O)OCc2cc(-c3ccco3)on2)CC1` [Derivative (252), 4-acetyl-piperazine-1-carboxylic acid 5-furan-2-yl-isoxazol-3-ylmethyl ester], for which, in test [1], the Emax at 120 µM was determined as 49%. `O=C(c1cc(-c2cccs2)on1)N1CCN(c2ccccn2)CC1` [Derivative (221), (4-pyridin-2-yl-piperazin-1-yl)-(5-thiophen-2-yl-isoxazol-3-yl)-methanone]: the Emax at 30 µM in test [1] came out at 51%. Still for that read-out and setting: the value for `O=C(c1cc(-c2cccs2)on1)N1CCN(c2ncccn2)CC1` [Derivative (222), (4-pyrimidin-2-yl-piperazin-1-yl)-(5-thiophen-2-yl-isoxazol-3-yl)-methanone] was 57%.
